For the first assay, the target named is T1, hGPR119 (Homo sapiens, UniProt Q8TDV5).
T1 construct: expressed in transfected cells; host or cells: CHO
T1 sequence (Q8TDV5 1-335): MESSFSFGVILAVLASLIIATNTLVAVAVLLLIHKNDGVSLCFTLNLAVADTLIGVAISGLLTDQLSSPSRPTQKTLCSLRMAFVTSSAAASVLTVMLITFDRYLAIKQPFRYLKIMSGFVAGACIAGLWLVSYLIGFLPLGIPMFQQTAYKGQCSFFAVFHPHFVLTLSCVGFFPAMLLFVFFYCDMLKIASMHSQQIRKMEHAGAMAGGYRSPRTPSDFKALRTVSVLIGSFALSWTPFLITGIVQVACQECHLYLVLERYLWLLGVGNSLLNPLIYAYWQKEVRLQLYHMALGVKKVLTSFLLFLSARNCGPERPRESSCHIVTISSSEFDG
Briefly: In vitro cyclic AMP assay (Cisbio dynamic 2 HTRF kit) in CHO-hGPR119 cells. The assay is classed as cell-based. The note with it: 1 h, cAMP, compound at 1 μM, 60 min, read-out: Induction (% induction at 1 μM). As to the method:
cAMP measurements were done using Cisbio dynamic 2 HTRF kit according to the manufacturer's protocol. Briefly, CHO-hGPR119 cells were plated at a cell density of 5000 cells/well/5 μl into a white small volume 384 well plate. The final concentrations of IBMX and DMSO used were 1 mM and 0.5% respectively. Cells were treated with various concentrations of the test compound for 60 min at room temperature. Cells were lysed by buffer containing Anti-cAMP antibody and d2-cAMP reagents and incubated for 1 hour at room temperature. HTRF was measured at 337 nm excitation and emission wavelengths of 665 nm and 620 nm on a microplate reader (Flurostar, BMG Labtech). Graphpad prism software was utilized for EC50 determinations.
With `CC(C)c1noc(N2CCC(C(C)Oc3nc4ccc(-c5cc[nH]c(=O)c5)nc4s3)CC2)n1` (stereo not drawn) [Compound 1126, 4-(2-(1-(1-(3-isopropyl-1,2,4-oxadiazol-5-yl)piperidin-4-yl)ethoxy)thiazolo[5,4-b]pyridin-5-yl)pyridin-2(1H)-one], the activation at 1 µM came to 42%. The same measure, in the same setting: in the case of `COCC(Oc1nc2ccc(-c3ccc(S(C)(=O)=O)cc3)nc2s1)C1CCN(c2nc(C(C)C)no2)CC1` (stereo not drawn) [Compound 1036, 3-isopropyl-5-(4-(2-methoxy-1-((5-(4-(methylsulfonyl)phenyl)thiazolo[5,4-b]pyridin-2-yl)oxy)ethyl)piperidin-1-yl)-1,2,4-oxadiazole] it was 47%; in that of `COCc1cnc(N2CCC([C@@H](C)Oc3nc4ccc(-c5ccc(S(C)(=O)=O)nc5)nc4s3)CC2)nc1` [Compound 1165, 2-((R)-1-(1-(5-(methoxymethyl)pyrimidin-2-yl)piperidin-4-yl)ethoxy)-5-(6-(methylsulfonyl)pyridin-3-yl)thiazolo[5,4-b]pyridine], 70%. Same read-out and setting: in the case of `CS(=O)(=O)c1ccc(-c2nc3ccc(OCC4CCN(Cc5ccccc5)CC4)nc3s2)cc1` [Compound 1009, 5-((1-benzylpiperidin-4-yl)methoxy)-2-(4-(methyslulfonyl)phenyl)thiazolo[5,4-b]pyridine] it was 5%.

Consider `CC(C)c1noc(N2CCC([C@@H](C)Oc3nc4ccc(-c5ccncc5)nc4s3)CC2)n1` [Compound 1070, (R)-3-isopropyl-5-(4-(1-((5-(pyridin-4-yl)thiazolo[5,4-b]pyridin-2-yl)oxy)ethyl)piperidin-1-yl)-1,2,4-oxadiazole], for which the activation at 1 µM was 83%. On the same count and under the same terms, in the case of `CC(C)c1noc(C2CCN(c3nc4ccc(-c5ccc(S(C)(=O)=O)nc5)nc4s3)CC2)n1` [Compound 1080, 3-isopropyl-5-(1-(5-(6-(methylsulfonyl)pyridin-3-yl)thiazolo[5,4-b]pyridin-2-yl)piperidin-4-yl)-1,2,4-oxadiazole] it was 40%; in that of `CCCc1cnc(N2CCC([C@@H](C)Oc3nc4ccc(-c5ccc(S(C)(=O)=O)cc5)nc4s3)CC2)nc1` [Compound 1090, (R)-5-(4-(methylsulfonyl)phenyl)-2-(1-(1-(5-propylpyrimidin-2-yl)piperidin-4-yl)ethoxy)thiazolo[5,4-b]pyridine], 54%.

As to `CC(C)c1noc(N2CCC(C(C)Oc3nc4ccc(-c5cnsc5)nc4s3)CC2)n1` (stereo not drawn) [Compound 1124, 2-(1-(1-(3-isopropyl-1,2,4-oxadiazol-5-yl)piperidin-4-yl)ethoxy)-5-(isothiazol-4-yl)thiazolo[5,4-b]pyridine], the activation at 1 µM came to 30%. Still for that read-out and setting: as for `CCCc1cnc(N2CCC(C(C)Oc3nc4ncc(-c5ccc(S(C)(=O)=O)cc5)nc4s3)CC2)nc1` (stereo not drawn) [Compound 1110, 6-(4-(methylsulfonyl)phenyl)-2-(1-(1-(5-propylpyrimidin-2-yl)piperidin-4-yl)ethoxy)thiazolo[4,5-b]pyrazine], the figure is 78%. Same read-out and setting: in the case of `CN(C)C(=O)N1CCC(c2nc3ccc(-c4ccc(S(C)(=O)=O)cc4)nc3s2)CC1` [Compound 1028, N,N-dimethyl-4-(5-(4-(methylsulfonyl)phenyl)thiazolo[5,4-b]pyridin-2-yl)piperidine-1-carboxamide] it was 2%; in that of `CCCS(=O)(=O)N1CCC(C(C)Oc2nc3ccc(-c4ccc(S(C)(=O)=O)cc4)nc3s2)CC1` (stereo not drawn) [Compound 1115, 5-(4-(methylsulfonyl)phenyl)-2-(1-(1-(propylsulfonyl)piperidin-4-yl)ethoxy)thiazolo[5,4-b]pyridine], 12%. Same read-out and setting: as for `CC(C)c1noc(N2CCC(OC(C)c3nc4ccc(-c5ccc(S(C)(=O)=O)cc5)nc4s3)CC2)n1` (stereo not drawn) [Compound 1130, 3-isopropyl-5-(4-(1-(5-(4-(methylsulfonyl)phenyl)thiazolo[5,4-b]pyridin-2-yl)ethoxy)piperidin-1-yl)-1,2,4-oxadiazole], the figure is 5%. As to `CC(C)c1noc(N2CCC(COc3nc4ccc(-c5ccc(S(C)(=O)=O)cc5)nc4s3)CC2)n1` [Compound 1006, 3-isopropyl-5-(4-(((5-(4-(methylsulfonyl)phenyl)thiazolo[5,4-b]pyridin-2-yl)oxy)methyl)piperidin-1-yl)-1,2,4-oxadiazole], the activation at 1 µM was found to be 31%.

In the case of `C=Cc1ccc(N2CCC(C(C)Oc3nc4ccc(-c5ccc(S(C)(=O)=O)cc5)nc4s3)CC2)nc1` (stereo not drawn) [Compound 1088, 5-(4-(methylsulfonyl)phenyl)-2-(1-(1-(5-vinylpyridin-2-yl)piperidin-4-yl)ethoxy)thiazolo[5,4-b]pyridine], the activation at 1 µM is 60%. Still for that read-out and setting: in the case of `Cc1cc(-c2ccc3nc(OC(C)C4CCN(c5nc(C(C)C)no5)CC4)sc3n2)ccn1` (stereo not drawn) [Compound 1123, 3-isopropyl-5-(4-(1-((5-(2-methylpyridin-4-yl)thiazolo[5,4-b]pyridin-2-yl)oxy)ethyl)piperidin-1-yl)-1,2,4-oxadiazole] it was 50%; in that of `CC(C)c1noc(N2CCC(C(C)Oc3nc4ccc(-c5ccc(C#N)cc5)nc4s3)CC2)n1` (stereo not drawn) [Compound 1065, 4-(2-(1-(1-(3-isopropyl-1,2,4-oxadiazol-5-yl)piperidin-4-yl)ethoxy)thiazolo[5,4-b]pyridin-5-yl)benzonitrile], 60%; in that of `COCCNC(=O)c1ccc(-c2ccc3nc(OC(C)C4CCN(c5nc(C(C)C)no5)CC4)sc3n2)cc1` (stereo not drawn) [Compound 1050, 4-(2-(1-(1-(3-isopropyl-1,2,4-oxadiazol-5-yl)piperidin-4-yl)ethoxy)thiaozlo[5,4-b]pyridin-5-yl)-N-(2-methoxyethyl)benzamide], 16%.

With `CC(C)c1noc(C2CCN(c3ccc4nc(-c5ccc(S(C)(=O)=O)cc5)sc4n3)CC2)n1` [Compound 1003, 3-isopropyl-5-(1-(2-(4-(methylsulfonyl)phenyl)thiazolo[5,4-b]pyridin-5-yl)piperidin-4-yl)-1,2,4-oxadiazole], the activation at 1 µM came out at 29%.

Consider `CCCc1cnc(N2CCC([C@H](C)Oc3nc4ccc(-c5ccncc5)nc4s3)CC2)nc1` [Compound 1153, 2-((S)-1-(1-(5-propylpyrimidin-2-yl)piperidin-4-yl)ethoxy)-5-(pyridin-4-yl)thiazolo[5,4-b]pyridine], for which the activation at 1 µM is 85%. On the same count and under the same terms, in the case of `CC(C)c1noc(N2CCC(C(C)Oc3nc4ccc(-c5cncs5)nc4s3)CC2)n1` (stereo not drawn) [Compound 1121, 3-isopropyl-5-(4-(1-((5-(thiazol-5-yl)thiazolo[5,4-b]pyridin-2-yl)oxy)ethyl)piperidin-1-yl)-1,2,4-oxadiazole] it was 30%; in that of `CC(C)OC(=O)N1CCC(N(C)c2nc3ccc(-c4ccc(S(C)(=O)=O)cc4)nc3s2)CC1` [Compound 1016, isopropyl 4-(methyl(5-(4-(methylsulfonyl)phenyl)thiazolo[5,4-b]pyridin-2-yl)amino)piperidine-1-carboxylate], 0%. Still for that read-out and setting: as for `CC(C)c1noc(N2CCC(C(C)Oc3nc4ccc(-c5ccnnc5)nc4s3)CC2)n1` (stereo not drawn) [Compound 1134, 3-isopropyl-5-(4-(1-((5-(pyridazin-4-yl)thiazolo[5,4-b]pyridin-2-yl)oxy)ethyl)piperidin-1-yl)-1,2,4-oxadiazole], the figure is 40%. Same read-out and setting: as for `CC(Oc1nc2ccc(-c3ccc(S(C)(=O)=O)cc3)nc2s1)C1CCN(c2cnc(Cl)cn2)CC1` (stereo not drawn) [Compound 1148, 2-(1-(1-(5-chloropyrazin-2-yl)piperidin-4-yl)ethoxy)-5-(4-(methylsulfonyl)phenyl)thiazolo[5,4-b]pyridine], the figure is 70%. Regarding `C[C@H](Oc1nc2ccc(-c3ccc(S(C)(=O)=O)nc3)nc2s1)C1CCN(c2nc(C(F)(F)F)no2)CC1` (stereo in doubt) [Compound 1145, 2-(1-(1-(3-(trifluoromethyl)-1,2,4-oxadiazol-5-yl)piperidin-4-yl)ethoxy)-5-(6-(methylsulfonyl)pyridin-3-yl)thiazolo[5,4-b]pyridine], the activation at 1 µM came to 65%.

`C[C@H](Oc1nc2ccc(-c3ccc(S(C)(=O)=O)nc3)nc2s1)C1CCN(c2ncc(Cl)cn2)CC1` [Compound 1136, 2-((S)-1-(1-(5-chloropyrimidin-2-yl)piperidin-4-yl)ethoxy)-5-(6-(methylsulfonyl)pyridin-3-yl)thiazolo[5,4-b]pyridine]: the activation at 1 µM came out at 82%. On the same count and under the same terms, as for `COCCS(=O)(=O)c1ccc(-c2ccc3nc(N4CCC(c5nc(C(C)C)no5)CC4)sc3n2)cc1` [Compound 1078, 3-isopropyl-5-(1-(5-(4-((2-methoxyethyl)sulfonyl)phenyl)thiazolo[5,4-b]pyridin-2-yl)piperidin-4-yl)-1,2,4-oxadiazole], the figure is 24%; as for `Cc1cc(-c2ccc(S(C)(=O)=O)cc2)nc2sc(OC(C)C3CCN(c4nc(C(C)C)no4)CC3)nc12` (stereo not drawn) [Compound 1037, 3-isopropyl-5-(4-(1-((7-methyl-5-(4-(methylsulfonyl)phenyl)thiazolo[5,4-b]pyridin-2-yl)oxy)ethyl)piperidin-1-yl)-1,2,4-oxadiazole], 18%.

The assay is the same for the next values; noted with them: cAMP.
Regarding `CC(C)c1noc(N2CCC([C@@H](C)Oc3nc4ccc(-c5ccncc5)nc4s3)CC2)n1` [Compound 1070, (R)-3-isopropyl-5-(4-(1-((5-(pyridin-4-yl)thiazolo[5,4-b]pyridin-2-yl)oxy)ethyl)piperidin-1-yl)-1,2,4-oxadiazole], the EC50 was in the range of 50 to 100 nM.

For the molecule `CCCc1cnc(N2CCC([C@H](C)Oc3nc4ccc(-c5ccncc5)nc4s3)CC2)nc1` [Compound 1153, 2-((S)-1-(1-(5-propylpyrimidin-2-yl)piperidin-4-yl)ethoxy)-5-(pyridin-4-yl)thiazolo[5,4-b]pyridine], the EC50 lay within 100 to 500 nM. On the same count and under the same terms, in the case of `C[C@H](Oc1nc2ccc(-c3ccc(S(C)(=O)=O)nc3)nc2s1)C1CCN(c2ncc(Cl)cn2)CC1` [Compound 1136, 2-((S)-1-(1-(5-chloropyrimidin-2-yl)piperidin-4-yl)ethoxy)-5-(6-(methylsulfonyl)pyridin-3-yl)thiazolo[5,4-b]pyridine] it was 100 to 500 nM.

Source of the values: patent US10526345B2, “Compounds as GPR119 agonists” (Mankind Pharma Ltd., priority 2016, dated 2020).
